Consider 4 compounds from patent publication US5486518A, “4-indolylpiperazinyl derivatives” (American Home Products Corporation, priority 1995, dated 1996).

The target in this assay is T1, serotonin 5-HT1 A receptor (Rattus norvegicus, UniProt P19327).
T1 construct: rat hippocampal membrane homogenate; from tissue; host or cells: rat hippocampus (membrane homogenate)
T1 sequence (P19327 1-422): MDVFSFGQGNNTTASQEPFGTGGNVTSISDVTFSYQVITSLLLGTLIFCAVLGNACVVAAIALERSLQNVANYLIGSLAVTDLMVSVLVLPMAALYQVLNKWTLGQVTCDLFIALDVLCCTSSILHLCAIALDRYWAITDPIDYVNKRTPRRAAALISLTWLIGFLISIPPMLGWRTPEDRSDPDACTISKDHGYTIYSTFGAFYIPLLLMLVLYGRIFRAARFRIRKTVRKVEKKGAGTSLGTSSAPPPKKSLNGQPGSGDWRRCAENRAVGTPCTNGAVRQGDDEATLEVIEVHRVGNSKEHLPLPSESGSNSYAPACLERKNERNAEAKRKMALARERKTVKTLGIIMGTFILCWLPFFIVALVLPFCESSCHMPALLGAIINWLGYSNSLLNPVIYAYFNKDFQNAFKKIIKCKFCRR
Put plainly: displacement of [^3 H]8-OHDPAT from the 5-HT1 A serotonin receptors in rat hippocampal membrane homogenate. The format is binding. An excerpt:
High affinity for the serotonin 5-HT1 A receptor was established by testing the claimed compound's ability to displace [^3 H]8-OHDPAT (dipropylaminotetralin) from the 5-HT1 A serotonin receptors in rat hippocampal membrane homogenate following the procedure of B. S. Alexander and M. D. Wood, J. Pharm. Pharmacol. 1988, 40, 888-891.
`O=C(N[C@@H](CN1CCN(c2cccc3[nH]ccc23)CC1)c1ccccc1)C1CCCCC1` [Example 1]: the concentration for half-maximal inhibition (IC50) came out at 2 nM.
To `CC(=O)N[C@@H](CN1CCN(c2cccc3[nH]ccc23)CC1)c1ccccc1` [Example 2] belongs 35.5 nM; to `O=C(N[C@@H](CN1CCN(c2cccc3[nH]ccc23)CC1)c1ccccc1)c1ccccc1` [Example 3], 5 nM.
To `O=C(N[C@H](Cc1ccccc1)CN1CCN(c2cccc3[nH]ccc23)CC1)C1CCCCC1` [Example 4, (R)- Cyclohexane Carboxylic Acid 1-Phenylmethyl-2-[1-[4-(4-indolyl)piperazinyl]] ethylamide] belongs 8.3 nM.

One may read the IC50 as the concentration needed to halve the response being measured. Lower therefore signals greater potency.
